Where a SMILES comes first, the peptide text is derived from it. [ ]: non-standard residue; d: D form. pT = C[C@@H](OP(=O)(O)O)[C@H](N)C(=O)O; pS = N[C@@H](COP(=O)(O)O)C(=O)O
What was measured:
[1] = target: T1, 14-3-3η (Homo sapiens, UniProt Q04917); test: direct binding FP assay, 14-3-3η; settings: FITC-labeled peptide; FP buffer pH 7.4; 60 min room temperature; mean ± S.D., n = 3; values for 14-16 are estimated (Fig. S4); read-out: KD toward 14-3-3η (FP assay)
T1 construct: N-terminally His6-tagged 14-3-3 full-length proteins were expressed with heterologous bacterial expression; made in house
T1 sequence (Q04917 1-246): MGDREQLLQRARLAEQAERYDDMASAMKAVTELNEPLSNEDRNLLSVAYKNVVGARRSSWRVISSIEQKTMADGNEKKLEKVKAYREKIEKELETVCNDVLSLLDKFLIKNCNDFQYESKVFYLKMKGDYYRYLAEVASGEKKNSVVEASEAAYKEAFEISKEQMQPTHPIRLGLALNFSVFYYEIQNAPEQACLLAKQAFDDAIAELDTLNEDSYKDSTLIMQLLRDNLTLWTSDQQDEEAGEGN
Experimental: For the FP assay, the 14-3-3 proteins were diluted to a protein-specific start concentration in FP buffer (10 mM HEPES, pH 7.4, 150 mM NaCl, 2 mM DTT, 0.01% Tween 20). DMSO stocks of peptides were diluted in FP buffer to a concentration of 30 nM. For the assay, 10 μl of FP buffer were pipetted in 20 wells of a 384-well Corning black round bottom plate. A dilution series with 10 μl of protein solution was performed, and 5 μl of peptide solution was added to each well for a final volume of 15 μl. The plate was incubated for 60 min at room temperature. Measurement was performed at 25 °C in a Tecan Spark20M plate reader (λex = 470 nm, λem = 525 nm). Data analysis was performed with GraphPad Prism (version 5.03), and KD values were determined via a nonlinear regression fit of dose-response curves with variable slope (four parameters).

[2] = target: T1, 14-3-3η; test: isothermal titration calorimetry (ITC) with 14-3-3η; assay type: binding
Experimental: The ITC experiments were performed on an automated MicroCal iTC200 (Malvern Panalytical). To prepare 14-3-3 proteins for ITC measurements, a buffer exchange to ITC buffer (50 mM HEPES, pH 7.4, 250 mM NaCl, 20 mM MgCl2) was performed on a Superdex 75 10/300 GL column (ÄKTA Pure FPLC system, GE Healthcare). For peptides 1, 7, and 17, a 500 μM solution of protein was titrated to a 50 μM solution of peptide in 18 steps (2-μl volume in 4 s, 180-s spacing) at 25 °C. For peptide 11, a 250 μM solution of protein was titrated to a 12.5 μM solution of peptide with the settings mentioned before. The reference power was set to […], and the stirring speed was set to 750 rpm. Analysis was performed using MicroCal ITC-ORIGIN analysis software.

Molecule | Kd [1] [µM] | also measured
CC(C)C[C@H](NC(=O)[C@@H](NC(=O)[C@@H](NC(=O)[C@H](C)NC(=O)[C@H](COP(=O)(O)O)NC(=O)[C@H](C)NC(=O)[C@@H]1CCCN1C(=O)[C@H](CC(N)=O)NC(=O)[C@@H](NC(=O)[C@@H](NC(=O)[C@H](C)NC(=O)[C@H](CO)NC(=O)[C@H](C)NC(=O)[C@H](CO)NC(=O)[C@@H]1CCCN1C(=O)[C@@H](NC(=O)[C@@H](NC(=O)[C@H](CO)NC(=O)[C@H](C)NC(=O)[C@@H](NC(=O)[C@@H]1CCCN1C(=O)[C@H](CO)NC(=O)[C@H](COP(=O)(O)O)NC(=O)[C@H](CC(N)=O)NC(=O)[C@H](C)NC(=O)[C@H](CC(N)=O)NC(=O)[C@H](CCCCN)NC(=O)[C@H](CC(N)=O)NC(=O)[C@H](CCCCN)NC(=O)[C@@H](N)CCC(=O)O)C(C)C)[C@@H](C)O)[C@@H](C)O)[C@@H](C)O)[C@@H](C)O)[C@@H](C)O)[C@@H](C)O)C(=O)N[C@@H](CC(=O)O)C(=O)N[C@@H](CCC(N)=O)C(=O)N[C@@H](CO)C(=O)N[C@@H](CCCCN)C(=O)N[C@@H](C)C(=O)N[C@@H](Cc1c[nH]c2ccccc12)C(=O)N[C@@H](CC(N)=O)C(=O)N[C@@H](CCCNC(=N)N)C(=O)O [compound 10] (H-EKNKNAN[pS]SPVASTTPSASATTNPA[pS]ATTLDQSKAWNR-OH) | 0.42 ± 0.03 | 
CC(=O)N[C@@H](CCC(=O)O)C(=O)N[C@@H](CCCCN)C(=O)N[C@@H](CC(N)=O)C(=O)N[C@@H](CCCCN)C(=O)N[C@@H](CC(N)=O)C(=O)N[C@@H](C)C(=O)N[C@@H](CC(N)=O)C(=O)N[C@@H](COP(=O)(O)O)C(=O)N[C@@H](CO)C(=O)N1CCC[C@H]1C(=O)N[C@H](C(=O)N[C@@H](C)C(=O)N[C@@H](CO)C(=O)N[C@H](C(=O)N[C@H](C(=O)N1CCC[C@H]1C(=O)N[C@@H](CO)C(=O)N[C@@H](C)C(=O)N[C@@H](CO)C(=O)N[C@@H](C)C(=O)N[C@H](C(=O)N[C@H](C(=O)N[C@@H](CC(N)=O)C(=O)N1CCC[C@H]1C(=O)N[C@@H](C)C(=O)N[C@@H](CO)C(=O)N[C@@H](C)C(=O)N[C@H](C(=O)N[C@H](C(=O)N[C@@H](CC(C)C)C(=O)N[C@@H](CC(=O)O)C(=O)N[C@@H](CCC(N)=O)C(=O)N[C@@H](CO)C(=O)N[C@@H](CCCCN)C(=O)N[C@@H](C)C(=O)N[C@@H](Cc1c[nH]c2ccccc12)C(=O)N[C@@H](CC(N)=O)C(=O)N[C@@H](CCCNC(=N)N)C(=O)O)[C@@H](C)O)[C@@H](C)O)[C@@H](C)O)[C@@H](C)O)[C@@H](C)O)[C@@H](C)O)C(C)C [compound 7] (Ac-EKNKNAN[pS]SPVASTTPSASATTNPASATTLDQSKAWNR-OH) |  | binding stoichiometry N (ITC, 14-3-3η) ([2]; T = 298 K, peptide per 14-3-3 protomer, mean ± S.D., n = 3): 1.13 ± 0.18
CC(C)C[C@H](NC(=O)[C@@H](NC(=O)[C@@H](NC(=O)[C@H](C)NC(=O)[C@H](CO)NC(=O)[C@H](C)NC(=O)[C@@H]1CCCN1C(=O)[C@H](CC(N)=O)NC(=O)[C@@H](NC(=O)[C@@H](NC(=O)[C@H](C)NC(=O)[C@H](CO)NC(=O)[C@H](C)NC(=O)[C@H](CO)NC(=O)[C@@H]1CCCN1C(=O)[C@@H](NC(=O)[C@@H](NC(=O)[C@H](CO)NC(=O)[C@H](C)NC(=O)[C@@H](NC(=O)[C@@H]1CCCN1C(=O)[C@H](CO)NC(=O)[C@H](COP(=O)(O)O)NC(=O)[C@H](CC(N)=O)NC(=O)[C@H](C)NC(=O)[C@H](CC(N)=O)NC(=O)[C@H](CCCCN)NC(=O)[C@H](CC(N)=O)NC(=O)[C@H](CCCCN)NC(=O)[C@@H](N)CCC(=O)O)C(C)C)[C@@H](C)O)[C@@H](C)O)[C@@H](C)OP(=O)(O)O)[C@@H](C)O)[C@@H](C)O)[C@@H](C)O)C(=O)N[C@@H](CC(=O)O)C(=O)N[C@@H](CCC(N)=O)C(=O)N[C@@H](CO)C(=O)N[C@@H](CCCCN)C(=O)N[C@@H](C)C(=O)N[C@@H](Cc1c[nH]c2ccccc12)C(=O)N[C@@H](CC(N)=O)C(=O)N[C@@H](CCCNC(=N)N)C(=O)O [compound 8] (H-EKNKNAN[pS]SPVASTTPSASA[pT]TNPASATTLDQSKAWNR-OH) | 18 ± 2.1 | 
CC(C)C[C@H](NC(=O)[C@@H](NC(=O)[C@@H](NC(=O)[C@H](C)NC(=O)[C@H](CO)NC(=O)[C@H](C)NC(=O)[C@@H]1CCCN1C(=O)[C@H](CC(N)=O)NC(=O)[C@@H](NC(=O)[C@@H](NC(=O)[C@H](C)NC(=O)[C@H](CO)NC(=O)[C@H](C)NC(=O)[C@H](CO)NC(=O)[C@@H]1CCCN1C(=O)[C@@H](NC(=O)[C@@H](NC(=O)[C@H](CO)NC(=O)[C@H](C)NC(=O)[C@@H](NC(=O)[C@@H]1CCCN1C(=O)[C@H](CO)NC(=O)[C@H](COP(=O)(O)O)NC(=O)[C@H](CC(N)=O)NC(=O)[C@H](C)NC(=O)[C@H](CC(N)=O)NC(=O)[C@H](CCCCN)NC(=O)[C@H](CC(N)=O)NC(=O)[C@H](CCCCN)NC(=O)[C@@H](N)CCC(=O)O)C(C)C)[C@@H](C)O)[C@@H](C)O)[C@@H](C)O)[C@@H](C)O)[C@@H](C)O)[C@@H](C)O)C(=O)N[C@@H](CC(=O)O)C(=O)N[C@@H](CCC(N)=O)C(=O)N[C@@H](COP(=O)(O)O)C(=O)N[C@@H](CCCCN)C(=O)N[C@@H](C)C(=O)N[C@@H](Cc1c[nH]c2ccccc12)C(=O)N[C@@H](CC(N)=O)C(=O)N[C@@H](CCCNC(=N)N)C(=O)O [compound 13] (H-EKNKNAN[pS]SPVASTTPSASATTNPASATTLDQ[pS]KAWNR-OH; N-terminus assumed) | > 83 | 
17: APN 36–73 pThr^63 peptide [compound 17] |  | ITC result with 14-3-3η (in words) ([2]; 500 μM protein titrated to 50 μM peptide, 25 °C, Fig. S8): no heat change could be observed
CC(C)C[C@H](NC(=O)[C@@H](NC(=O)[C@@H](NC(=O)[C@H](C)NC(=O)[C@H](CO)NC(=O)[C@H](C)NC(=O)[C@@H]1CCCN1C(=O)[C@H](CC(N)=O)NC(=O)[C@@H](NC(=O)[C@@H](NC(=O)[C@H](C)NC(=O)[C@H](CO)NC(=O)[C@H](C)NC(=O)[C@H](CO)NC(=O)[C@@H]1CCCN1C(=O)[C@@H](NC(=O)[C@@H](NC(=O)[C@H](CO)NC(=O)[C@H](C)NC(=O)[C@@H](NC(=O)[C@@H]1CCCN1C(=O)[C@H](CO)NC(=O)[C@H](COP(=O)(O)O)NC(=O)[C@H](CC(N)=O)NC(=O)[C@H](C)NC(=O)[C@H](CC(N)=O)NC(=O)[C@H](CCCCN)NC(=O)[C@H](CC(N)=O)NC(=O)[C@H](CCCCN)NC(=O)[C@@H](N)CCC(=O)O)C(C)C)[C@@H](C)O)[C@@H](C)O)[C@@H](C)O)[C@@H](C)O)[C@@H](C)O)[C@@H](C)OP(=O)(O)O)C(=O)N[C@@H](CC(=O)O)C(=O)N[C@@H](CCC(N)=O)C(=O)N[C@@H](CO)C(=O)N[C@@H](CCCCN)C(=O)N[C@@H](C)C(=O)N[C@@H](Cc1c[nH]c2ccccc12)C(=O)N[C@@H](CC(N)=O)C(=O)N[C@@H](CCCNC(=N)N)C(=O)O [compound 12] (H-EKNKNAN[pS]SPVASTTPSASATTNPASAT[pT]LDQSKAWNR-OH) | 0.18 ± 0.01 | 
CC(C)C[C@H](NC(=O)[C@@H](NC(=O)[C@@H](NC(=O)[C@H](C)NC(=O)[C@H](CO)NC(=O)[C@H](C)NC(=O)[C@@H]1CCCN1C(=O)[C@H](CC(N)=O)NC(=O)[C@@H](NC(=O)[C@@H](NC(=O)[C@H](C)NC(=O)[C@H](CO)NC(=O)[C@H](C)NC(=O)[C@H](CO)NC(=O)[C@@H]1CCCN1C(=O)[C@@H](NC(=O)[C@@H](NC(=O)[C@H](CO)NC(=O)[C@H](C)NC(=O)[C@@H](NC(=O)[C@@H]1CCCN1C(=O)[C@H](CO)NC(=O)[C@H](COP(=O)(O)O)NC(=O)[C@H](CC(N)=O)NC(=O)[C@H](C)NC(=O)[C@H](CC(N)=O)NC(=O)[C@H](CCCCN)NC(=O)[C@H](CC(N)=O)NC(=O)[C@H](CCCCN)NC(=O)[C@@H](N)CCC(=O)O)C(C)C)[C@@H](C)O)[C@@H](C)O)[C@@H](C)O)[C@@H](C)OP(=O)(O)O)[C@@H](C)O)[C@@H](C)O)C(=O)N[C@@H](CC(=O)O)C(=O)N[C@@H](CCC(N)=O)C(=O)N[C@@H](CO)C(=O)N[C@@H](CCCCN)C(=O)N[C@@H](C)C(=O)N[C@@H](Cc1c[nH]c2ccccc12)C(=O)N[C@@H](CC(N)=O)C(=O)N[C@@H](CCCNC(=N)N)C(=O)O [compound 9] (H-EKNKNAN[pS]SPVASTTPSASAT[pT]NPASATTLDQSKAWNR-OH) | 15 ± 1.5 | 

Reference: paper PMC7939381, “MMP activation–associated aminopeptidase N reveals a bivalent 14-3-3 binding motif” (The Journal of Biological Chemistry, 2021)
